How the values were obtained:
Human dermal fibroblasts [1] = assay: Cell activity (AlamarBlue) after UV irradiation through a solution of the UV wavelength conversion substance; format: cell-based; settings: UV 0, 10, 25, 50, 75 or 100 mJ/cm^2, FIG. 3
Experimental: (§1) A cell sample was prepared as follows: • 1. Human dermal fibroblasts and human skin keratinocytes purchased from Kurabo Industries Ltd. were used. A cell suspension (1 mL) stored in liquid nitrogen was thawed in a water bath (37° C.) to an extent that small ice pellets remained, and then diluted with 9 mL of warm medium. • 2. The diluted suspension was mixed gently and then transferred to a T75 flask and incubated overnight at 37° C. • 3. The next day, the medium was replaced with 10 mL of fresh medium. • 4. The medium was replaced periodically (once every 2 days for fibroblasts and once every 2 to 3 days for keratinocytes) and cell proliferation was continued. Meanwhile, the cells were observed using a microscope, and it was confirmed that the cells grew in the correct form. • 5. After the cells reached about 80% confluence, the cells were passaged. The cells were passaged by washing the cells once with 10 mL of warm PBS, adding 5 mL of warm trypsin to a T75 flask, covering the bottom of the flask with a trypsin solution, followed by aspirating at room temperature for 1 minute. • 6. The flask was allowed to stand in an oven at 37° C. for (maximum) 2 minutes for fibroblasts and (maximum) 7 minutes for keratinocytes. The cells were observed using a microscope and confirmed to be small and oval. • 7. Thereafter, the side of the T75 flask was lightly tapped to release the cells. […]

Human dermal fibroblasts [2] = assay: Restoration of cell activity decreased by prior UV irradiation (AlamarBlue); format: cell-based; settings: FIG. 5
Experimental: as §1

C-phycocyanin
cell activity (relative fluorescence intensity) (Human dermal fibroblasts [1]; 0.4% C-phycocyanin solution): the decrease in cell activity was suppressed
cell activity (relative fluorescence intensity) (Human dermal fibroblasts [1]; 2% C-phycocyanin solution): the cell activity was even increased
cell activity recovery effect, comparison of concentrations (Human dermal fibroblasts [2]; 0.4% versus 2% C-phycocyanin after 400 mJ/cm^2 pre-irradiation): equivalent at concentrations of 0.4% and 2%
cell activity (relative fluorescence intensity) of cells with once decreased activity (Human dermal fibroblasts [2]; pre-irradiation 400 mJ/cm^2 without substance, then UV 0-200 mJ/cm^2 through 0.4% or 2% C-phycocyanin): cell activity was recovered
